Measurements as given in patent US20100303790A1, “USE OF BILIVERDIN REDUCTASE (BVR) AND BVR PEPTIDE FRAGMENTS TO TREAT CORONARY DISORDERS” (UNIVERSITY OF ROCHESTER, priority 2009, published 2010).
“Also recorded” adds a separate entry of the source.

Legend:
[1] = Langendorff perfused heart: BVR and HO-2 protein by western blot; type: in vivo, rat; conditions: 3 hours perfusion; for HO-2 protein expression: peptide 25 μM with 0.1 μM ISO; for BVR protein expression: peptide 25 μM
Protocol: (§1) Western Blot Analysis: Cell lysates were prepared by homogenization in RIPA buffer (40 mM Tris-HCl, pH 7.5, 1 mM EDTA, 1 mM DTT, 0.1 mM Na3VO4, 10 μg/ml aprotinin, 5 μg/ml pepstatin, 20 μg/ml leupeptin, 1 mM bezamidine followed by centrifugation at 800×g for 10 minutes at 4° C. (Ding et al., “Functional Role of Phosphodiesterase 3 in Cardiomyocyte Apoptosis: Implication in Heart Failure,” Circulation 111:2469-2476 (2005), which is hereby incorporated by reference in its entirety). Supernatant proteins were resolved by SDS-PAGE and transferred to nitrocellulose. Western blots were examined using antibodies against β-actin (Cell Signaling), BVR (Huang et al., “Detection of 10 Variants of Biliverdin Reductase in Rat Liver by Two-Dimensional Gel Electrophoresis,” J Biol Chem 264:7844-7849 (1989), which is hereby incorporated by reference in its entirety), HO-1, HO-2 (Panahian et al., “Site of Injury-Directed Induction of Heme Oxygenase-1 and -2 in Experimental Spinal Cord Injury Differential Functions in Neuronal Defense Mechanisms?” J Neurochem 76:539-554 (2001), which is hereby incorporated by reference in its entirety), and cleaved caspase-3 (Cell Signaling, Beverly Mass.). The secondary antibody was horseradish peroxidase-conjugated goat anti-rabbit IgG (1:2,000, Bio-Rad).
In Vivo Experimental Langendorff Model: Male Sprague-Dawley rats weighing 250-300 g (Charles River, Boston, Mass.) were used in this study; the protocol is based on that described by Tompkins et al., “Mitochondrial Dysfunction in Cardiac Ischemia-Reperfusion Injury: ROS From Complex I, Without Inhibition,” Biochim Biophys Acta 1762:223-231 (2006), which is hereby incorporated by reference in its entirety, with minor modification. The rats were fed a standard rat chow and had water ad libitum. All experiments were approved by the University of Rochester Institutional Animal Care and Use Committee. Rats were given two subcutaneous injections of isoproterenol (ISO) (0.01 mg/kg), 6 hours apart, then anesthetized with freshly prepared Avertin (2,2,2-tribromoethanol, […] injected intraperitoneally), and treated with heparin (5000 U/kg), i.p., to protect the heart against microthrombi. The aorta was cannulated in situ with a 22-gauge needle filled with warm Krebs-Henseleit (KH) buffer. The heart was rapidly transferred (<10 s.) to a perfusion apparatus, and retrograde (Langendorff) perfusion begun with 37° C. KH buffer gassed with 95% O2 plus 5% CO2, in constant flow mode (12 ml/min). […] Hemodynamics and heart rate were recorded by inserting a water-filled balloon connected to a transducer (Radnoti LLC, model no. 159904B) into the left ventricle. […]

BVR = molecular target: T1, BVR (Homo sapiens, UniProt P53004, A154S/E160D/G155D); conditions: Lerner-Marmarosh et al. 2007; cited from earlier work
T1 sequence (P53004 3-296 A154S/G155D/E160D): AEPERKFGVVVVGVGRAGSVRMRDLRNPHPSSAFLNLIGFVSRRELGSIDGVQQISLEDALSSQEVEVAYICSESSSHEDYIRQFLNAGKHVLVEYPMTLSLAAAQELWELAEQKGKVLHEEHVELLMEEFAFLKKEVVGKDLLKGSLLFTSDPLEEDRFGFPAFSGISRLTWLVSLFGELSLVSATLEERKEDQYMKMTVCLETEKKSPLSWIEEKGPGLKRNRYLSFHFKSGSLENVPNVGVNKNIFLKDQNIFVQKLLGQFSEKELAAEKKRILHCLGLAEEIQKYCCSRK

rat heart = test: BVR and HO-2 expression in rat heart after continuous isoproterenol infusion; type: in vivo; conditions: 400 μg isoproterenol/kg/h, four days
Protocol: as §1
Quantitative RT-PCR: Total RNA was isolated using Trizol reagent (Invitrogen). The first-strand cDNA synthesis and quantitative polymerase chain reaction (RT-PCR) were performed as previously described (Tudor et al., “Biliverdin Reductase is a Transporter of Haem into the Nucleus and is Essential for Regulation of HO-1 Gene Expression by Haematin,” Biochem J 413:405-416 (2008), which is hereby incorporated by reference in its entirety). The following primers were used for PCR analysis: […]
Implanting ISO Miniosmotic Pump: Miniosmotic pumps (Alzet model 2001, Durect Co., Cupertino, Calif.) were filled under sterile conditions with ISO dissolved in 0.001 N HCl, primed in sterile saline at 37° C. overnight, and aseptically implanted subcutaneously under halothane anesthesia. The ISO concentration was calculated to allow the pumps to deliver the drug at an infusion rate of 400 μg ISO base/kg/h, essentially as described by (Hayes et al., “Effects of Prolonged Isoproterenol Infusion on Cardiac and Vascular Responses to Adrenoceptor Agonists,”J Pharmacol Exp Ther 237:757-763 (1986), which is hereby incorporated by reference in its entirety).
It might be argued that the above data arose as an artifact of cell culture. To test whether those findings also apply in vivo, four rats were continuously infused with isoproterenol for four days, after which cardiac tissue was harvested for examination of BVR and HO-2 expression. […] Also, as expected from in vitro observations, there was no change in the level of HO-2 mRNA during infusion with isoproterenol (FIG. 3B), whereas the BVR mRNA was increased.

Compound	HO-2 protein expression [1]	BVR protein expression [1]	effect on BVR activity (BVR)	BVR mRNA in heart (rat heart)	level of HO-1 mRNA in the tissue (rat heart)	level of HO-2 mRNA in heart (rat heart)	BVR protein expression in heart (rat heart; vs sham)	HO-2 protein expression in heart (rat heart; vs sham)
KYCCSRK (biliverdin reductase peptide) [KYCCSRK^296]	increased HO-2 protein expression; also recorded: greatly enhanced increase of HO-2 protein	do not affect protein expression	activator					
KKRILHC (biliverdin reductase peptide) [KKRILHC^281]	inhibited the BVR-induced HO-2 increase; also recorded: virtually eliminated the induction of HO-2	do not affect protein expression	potent inhibitor					
CC(C)NCC(O)c1ccc(O)c(O)c1 (centres unmarked) [isoproterenol]				increased	no apparent change	no change	up-regulated	up-regulated
